Assays:
Volasertib/BI6727 = compound: CC[C@@H]1C(=O)N(C)c2cnc(Nc3ccc(C(=O)N[C@H]4CC[C@H](N5CCN(CC6CC6)CC5)CC4)cc3OC)nc2N1C(C)C [Volasertib/BI6727]
Ceritinib/LDK378 = compound: Cc1cc(Nc2ncc(Cl)c(Nc3ccccc3S(=O)(=O)C(C)C)n2)c(OC(C)C)cc1C1CCNCC1 [Ceritinib/LDK378]
INK128/MLN0128 = compound: CC(C)n1nc(-c2ccc3oc(N)nc3c2)c2c(N)ncnc21 [INK128/MLN0128]
Neratinib/HKI272 [1] = compound: T1, CCOc1cc2ncc(C#N)c(Nc3ccc(OCc4ccccn4)c(Cl)c3)c2cc1NC(=O)/C=C/CN(C)C [Neratinib/HKI272]
Tivantinib/ARQ197 = compound: O=C1NC(=O)[C@@H](c2cn3c4c(cccc24)CCC3)[C@@H]1c1c[nH]c2ccccc12 [Tivantinib/ARQ197]
Paclitaxel = compound: CC(=O)O[C@H]1C(=O)[C@@]2(C)[C@H]([C@H](OC(=O)c3ccccc3)[C@]3(O)C[C@H](OC(=O)[C@H](O)[C@@H](NC(=O)c4ccccc4)c4ccccc4)C(C)=C1C3(C)C)[C@]1(OC(C)=O)CO[C@@H]1C[C@@H]2O [Paclitaxel]
ABT-737 = compound: CN(C)CC[C@H](CSc1ccccc1)Nc1ccc(S(=O)(=O)NC(=O)c2ccc(N3CCN(Cc4ccccc4-c4ccc(Cl)cc4)CC3)cc2)cc1[N+](=O)[O-] [ABT-737]
Taselisib/GDC0032 = compound: Cc1nc(-c2cn3c(n2)-c2ccc(-c4cnn(C(C)(C)C(N)=O)c4)cc2OCC3)n(C(C)C)n1 [Taselisib/GDC0032]
Pictilisib/GDC0941 = compound: CS(=O)(=O)N1CCN(Cc2cc3nc(-c4cccc5[nH]ncc45)nc(N4CCOCC4)c3s2)CC1 [Pictilisib/GDC0941]
[2] = compound: CCN1CCN(Cc2ccc(Nc3ncc(F)c(-c4cc(F)c5nc(C)n(C(C)C)c5c4)n3)nc2)CC1
Neratinib/HKI272 [3] = compound: T1, Neratinib/HKI272; experiment: GR value, 72 h; higher = faster growth (1 = untreated, <0 = killing);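 also: breast cancer and non-malignant breast epithelial lines, nine half-log doses, viable cells counted by Hoechst and LIVE/DEAD dye imaging versus time-zero plates and DMSO controls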
[4] = compound: CCc1cnn2c(NCc3ccc[n+]([O-])c3)cc(N3CCCC[C@H]3CCO)nc12; experiment: as above
[5] = compound: CCN1CCN(Cc2ccc(Nc3ncc(F)c(-c4cc(F)c5nc(C)n(C(C)C)c5c4)n3)nc2)CC1; experiment: as above
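For GR50, 72 h in this document: breast cancer and non-malignant breast epithelial cell lines, Deep Dye Drop or Dye Drop imaging, nine half-log doses, GR normalized to time-zero plates and DMSO-only controls.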

MDAMB157
GR50, 72 h (Volasertib/BI6727): 0.00692 µM | GR50, 72 h (Ceritinib/LDK378): 0.484 µM | GR50, 72 h (INK128/MLN0128): 0.0318 µM | GR50, 72 h (Neratinib/HKI272 [1]): 0.796 µM | GR50, 72 h (Tivantinib/ARQ197): 0.777 µM | GR50, 72 h (Paclitaxel): 0.00205 µM | GR50, 72 h (ABT-737): 6.41 µM | GR50, 72 h (Taselisib/GDC0032): 1.36 µM | GR50, 72 h (Pictilisib/GDC0941): 2.05 µM | GR50, 72 h [2]: 1.8 µM | GR value (Neratinib/HKI272 [3]; 0.0003162 µM): 1.03 GR | GR value (Neratinib/HKI272 [3]; 0.001 µM): 0.981 GR | GR value (Neratinib/HKI272 [3]; 0.003162 µM): 1.04 GR | GR value (Neratinib/HKI272 [3]; 0.01 µM): 1 GR | GR value (Neratinib/HKI272 [3]; 0.03162 µM): 0.921 GR | GR value (Neratinib/HKI272 [3]; 0.1 µM): 0.842 GR | GR value (Neratinib/HKI272 [3]; 0.3162 µM): 0.708 GR | GR value (Neratinib/HKI272 [3]; 1 µM): 0.445 GR | GR value (Neratinib/HKI272 [3]; 3.162 µM): 0.151 GR | GR value ([4]; 0.0001 µM): 1.07 GR | GR value ([4]; 0.0003162 µM): 1.05 GR | GR value ([4]; 0.001 µM): 1.06 GR | GR value ([4]; 0.003162 µM): 0.982 GR | GR value ([4]; 0.01 µM): 0.929 GR | GR value ([4]; 0.03162 µM): -0.488 GR | GR value ([4]; 0.1 µM): -0.86 GR | GR value ([4]; 0.3162 µM): -0.899 GR | GR value ([4]; 1 µM): -0.915 GR | GR value ([5]; 0.001 µM): 1.01 GR | GR value ([5]; 0.003162 µM): 1.08 GR | GR value ([5]; 0.01 µM): 0.993 GR | GR value ([5]; 0.03162 µM): 0.928 GR | GR value ([5]; 0.1 µM): 0.913 GR | GR value ([5]; 0.3162 µM): 0.727 GR | GR value ([5]; 1 µM): 0.578 GR | GR value ([5]; 3.162 µM): 0.441 GR | GR value ([5]; 10 µM): -0.587 GR

HCC1428
GR50, 72 h (Volasertib/BI6727): 0.0187 µM | GR50, 72 h (Ceritinib/LDK378): 1.24 µM | GR50, 72 h (INK128/MLN0128): 0.00593 µM | GR50, 72 h (Neratinib/HKI272 [1]): 1.43 µM | GR50, 72 h (Tivantinib/ARQ197): 0.252 µM | GR50, 72 h (Paclitaxel): 0.00862 µM | GR50, 72 h (ABT-737): 4 µM | GR50, 72 h (Taselisib/GDC0032): 4.21 µM | GR50, 72 h (Pictilisib/GDC0941): 5.87 µM | GR50, 72 h [2]: 0.00979 µM | GR value (Neratinib/HKI272 [3]; 0.0003162 µM): 1.08 GR | GR value (Neratinib/HKI272 [3]; 0.001 µM): 1.03 GR | GR value (Neratinib/HKI272 [3]; 0.003162 µM): 1.05 GR | GR value (Neratinib/HKI272 [3]; 0.01 µM): 0.992 GR | GR value (Neratinib/HKI272 [3]; 0.03162 µM): 1.1 GR | GR value (Neratinib/HKI272 [3]; 0.1 µM): 0.964 GR | GR value (Neratinib/HKI272 [3]; 0.3162 µM): 0.922 GR | GR value (Neratinib/HKI272 [3]; 1 µM): 0.656 GR | GR value (Neratinib/HKI272 [3]; 3.162 µM): -0.0337 GR | GR value ([4]; 0.0001 µM): 1.11 GR | GR value ([4]; 0.0003162 µM): 1.09 GR | GR value ([4]; 0.001 µM): 0.975 GR | GR value ([4]; 0.003162 µM): 0.984 GR | GR value ([4]; 0.01 µM): 0.871 GR | GR value ([4]; 0.03162 µM): -0.205 GR | GR value ([4]; 0.1 µM): -0.538 GR | GR value ([4]; 0.3162 µM): -0.619 GR | GR value ([4]; 1 µM): -0.67 GR | GR value ([5]; 0.001 µM): 0.945 GR | GR value ([5]; 0.003162 µM): 0.654 GR | GR value ([5]; 0.01 µM): 0.515 GR | GR value ([5]; 0.03162 µM): 0.31 GR | GR value ([5]; 0.1 µM): 0.228 GR | GR value ([5]; 0.3162 µM): 0.25 GR | GR value ([5]; 1 µM): 0.234 GR | GR value ([5]; 3.162 µM): 0.181 GR | GR value ([5]; 10 µM): 0.0475 GR
